Data taken from ChEMBL document CHEMBL4251632, “Synthesis and antidepressant-like activity of novel aralkyl piperazine derivatives targeting SSRI/5-HT1A/5-HT7” (Eur J Med Chem, 2018).

Legend:
Mus musculus [1] = assay: Antidepressant-like activity in mouse assessed as reduction in immobility time at 40 mg/kg/day, po once daily for 7 days measured for last 4 mins of 6 mins test at 1 hr post last dose by forced swim test relative to control; format: functional; parameters: scale not given: the % may be the effect or the level left
[2] = Plasma concentration in Sprague-Dawley rat at 0.5 mg/kg, iv administered as single dose measured after 30 mins by LC-MS/MS analysis; format: ADME, organism-based
[3] = Plasma concentration in Sprague-Dawley rat at 0.5 mg/kg, iv administered as single dose measured after 1 hr by LC-MS/MS analysis; format: ADME, organism-based
[4] = AUC (0 to infinity) in Sprague-Dawley rat at 2 mg/kg, po administered as single dose by LC-MS/MS analysis; format: ADME, organism-based; parameters: dose 2 mg/kg, time infinity, route oral; conditions: in vivo
[5] = Plasma concentration in Sprague-Dawley rat at 0.5 mg/kg, iv administered as single dose measured after 8 hrs by LC-MS/MS analysis; format: ADME, organism-based
[6] = MRT (0 to t) in Sprague-Dawley rat at 0.5 mg/kg, iv administered as single dose by LC-MS/MS analysis; format: ADME, organism-based; conditions: in vivo
[7] = Apparent terminal half life in Sprague-Dawley rat at 0.5 mg/kg, iv administered as single dose by LC-MS/MS analysis; format: ADME, organism-based; conditions: in vivo, read-out: betat1/2(app) (converted)
in vitro = conditions: rat, liver microsomes
Description: Half life in rat liver microsomes at 1 uM in presence of NADPH by LC-MS/MS analysis

[8] = Plasma concentration in Sprague-Dawley rat at 0.5 mg/kg, iv administered as single dose measured after 2 hrs by LC-MS/MS analysis; format: ADME, organism-based
[9] = Plasma concentration in Sprague-Dawley rat at 2 mg/kg, po administered as single dose measured after 15 mins by LC-MS/MS analysis; format: ADME, organism-based
Mus musculus [10] = assay: Antidepressant-like activity in mouse assessed as reduction in immobility time at 10 mg/kg/day, po once daily for 7 days measured for last 4 mins of 6 mins test at 1 hr post last dose by forced swim test relative to control; format: functional; parameters: scale not given: the % may be the effect or the level left
Mus musculus [11] = assay: Antidepressant-like activity in mouse assessed as reduction in immobility time at 10 mg/kg/day, po administered once daily for 7 days measured for 5 mins at 1 hr post last dose by tail suspension test relative to control; format: functional; parameters: scale not given: the % may be the effect or the level left
[12] = target: T1, Alpha-1A adrenergic receptor (Homo sapiens, UniProt P35348); assay: Displacement of [3H]prazosin from alpha1-adrenoceptor (unknown origin) in cerebral cortex membranes after 60 mins by TopCount scintillation counting method; format: cell membranes, Membrane
T1 sequence (P35348 whole entry): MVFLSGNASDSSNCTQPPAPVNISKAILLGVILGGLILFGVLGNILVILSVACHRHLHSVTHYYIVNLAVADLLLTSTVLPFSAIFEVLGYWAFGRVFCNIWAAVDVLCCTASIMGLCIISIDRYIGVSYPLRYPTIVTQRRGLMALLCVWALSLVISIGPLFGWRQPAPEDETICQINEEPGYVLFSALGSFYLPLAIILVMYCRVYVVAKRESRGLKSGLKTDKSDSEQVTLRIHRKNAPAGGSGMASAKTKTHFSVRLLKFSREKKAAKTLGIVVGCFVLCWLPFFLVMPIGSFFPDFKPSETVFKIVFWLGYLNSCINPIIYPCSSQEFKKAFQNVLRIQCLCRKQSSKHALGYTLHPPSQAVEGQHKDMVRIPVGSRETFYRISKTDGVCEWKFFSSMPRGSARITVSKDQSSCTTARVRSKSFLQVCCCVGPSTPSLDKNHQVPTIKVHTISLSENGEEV

[13] = AUC (0 to infinity) in Sprague-Dawley rat at 0.5 mg/kg, iv administered as single dose by LC-MS/MS analysis; format: ADME, organism-based; parameters: dose 0.5 mg/kg, time infinity, route intravenous; conditions: in vivo
[14] = Tmax in Sprague-Dawley rat at 2 mg/kg, po administered as single dose by LC-MS/MS analysis; format: ADME, organism-based; conditions: in vivo
[15] = Plasma concentration in Sprague-Dawley rat at 0.5 mg/kg, iv administered as single dose measured after 4 hrs by LC-MS/MS analysis; format: ADME, organism-based
Rattus norvegicus = assay: Apparent clearance during terminal phase in Sprague-Dawley rat at 0.5 mg/kg, iv administered as single dose by LC-MS/MS analysis; format: ADME, organism-based; conditions: in vivo
Homo sapiens = species on record: Homo sapiens; assay: Selectivity ratio of Ki for alpha1-adrenoceptor (unknown origin) in cerebral cortex membranes to Ki for recombinant human 5-HT1A receptor expressed in HEK293 cell membranes; format: cell-based
[16] = Cmax in Sprague-Dawley rat at 0.5 mg/kg, iv administered as single dose by LC-MS/MS analysis; format: ADME, organism-based; parameters: dose 0.5 mg/kg, route intravenous; conditions: in vivo
Mus musculus [17] = assay: Antidepressant-like activity in mouse assessed as reduction in immobility time at 40 mg/kg/day, po administered once daily for 7 days measured for 5 mins at 1 hr post last dose by tail suspension test relative to control; format: functional; parameters: scale not given: the % may be the effect or the level left

Fc1ccc(N2CCN(CCCc3c[nH]c4ccc(F)cc34)CC2)c(-c2ccccc2)c1
Activity (Mus musculus [1]): 54%
concentration at 0.5 h [2]: 80.8 ng/mL
concentration at 1 h [3]: 51.3 ng/mL
AUC(0-inf) [4]: 898 ng·h/mL
concentration at 8 h [5]: 8.84 ng/mL
MRT last [6]: 1.9 h
half-life [7]: 3.3 h
half-life at 1 µM (in vitro): 0.775 h
concentration at 2 h [8]: 32.3 ng/mL
concentration at […] [9]: 20.4 ng/mL
Activity (Mus musculus [10]): 24%
Activity (Mus musculus [11]): 18%
Ki [12]: 28 nM
AUC(0-inf) [13]: 328 ng·h/mL
Tmax [14]: 1.7 h
concentration at 4 h [15]: 20.7 ng/mL
CLz/F (Rattus norvegicus): 25 mL/min/kg
Ratio Ki (Homo sapiens): 1
Cmax [16]: 342 ng/mL
Activity (Mus musculus [17]): 39%
